From patent US20250270208A1, “BICYCLIC HETEROCYCLES AS MRGPRX2 ANTAGONISTS” (Incyte Corporation, priority 2023, published 2025)

Legend:
Type in all cases: cell-based
[1] = target: T1, MRGPRX2 (Homo sapiens, UniProt Q96LB1); test: MRGPRX2 IP1 HTRF assay; design: host or cells: CHO-K1; details: CHO-K1 cells stably expressing human MRGPRX2; IP1 accumulation; agonist Cortistatin 14 1 μM
T1 sequence (Q96LB1 1-330): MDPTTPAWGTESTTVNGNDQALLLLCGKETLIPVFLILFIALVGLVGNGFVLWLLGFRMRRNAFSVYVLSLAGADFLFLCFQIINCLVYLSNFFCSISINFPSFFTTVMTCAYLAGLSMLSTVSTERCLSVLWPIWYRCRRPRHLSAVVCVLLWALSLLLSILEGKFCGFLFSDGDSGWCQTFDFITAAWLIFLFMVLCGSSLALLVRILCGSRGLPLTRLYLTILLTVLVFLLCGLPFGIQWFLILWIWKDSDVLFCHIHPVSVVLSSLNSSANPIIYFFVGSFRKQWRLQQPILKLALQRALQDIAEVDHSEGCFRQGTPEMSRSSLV
Experimental: This assay measures compound inhibition of myo-Inositol 1 phosphate (IP1) accumulation in CHO-K1 cells. Chinese hamster ovary (CHO-K1) cells stably expressing human MRGPRX2 were purchased from GenScript (Piscataway, NJ).
For the HTRF IP1 determination, an IP-One GqKit (Perkin Elmer Cisbio, Waltham, MA), which includes all reagents and buffers in this protocol, was used. The cells were maintained in culture medium (Ham's F-12K) containing 10% (v/v) FBS, and 200 μg/mL Zeocin. For the assay, the cells were harvested and resuspended in culture medium with 2% FBS and without Zeocin, then were passed through a 40 μm filter. Cells were added at 20000 cells in a 5 μL/well to a 384-well white small volume cell culture plate (Greiner VWR, Radnor, PA) which contained 50 nL/well of test compound serially diluted at a selected concentration range in DMSO. 5 μL/well of prepared 2× Stimulation Buffer 2 was then added to plates and was incubated at 37° C. with 5% CO2 for 1 h. 5 μL/well of agonist Cortistatin 14 (Bio-TechneR&D Systems, Minneapolis, MN) in 1× Stimulation Buffer 2, for a 1 μM final concentration, was then added to plates and incubated at 37° C. with 5% CO2 for 1 h. 6 μL/well of 1:20 diluted Detection Reagent Mix (d2 and Cryptate) was added to the plates and incubated for 1 h in the dark. Plates were read on the PHERAstar microplate reader (BMG Labtech Cary, NC) to determine the HTRF ratio of the acceptor and donor emission signals. The IP1 concentrations were calculated from a standard curve following the IP-One GQ kit instructions. Wells with DMSO only and wells with high concentration of reference antagonist were used as controls for normalization. Compound IC50 curves were globally fitted with 3- or 4-parameter Hill equation in a Genedata Screener (Genedata Basel, Switzerland).

[2] = target: T1, MRGPRX2; test: MRGPRX2 FLIPR calcium mobilization assay; design: host or cells: CHO-K1; details: CHO-K1 cells stably expressing human MRGPRX2; Ca2+ release; agonist Cortistatin-14 at EC80
Experimental: Chinese hamster ovary (CHO-K1) cells stably expressing human MRGPRX2 were purchased from Genescript (Piscataway, NJ). The cells were maintained in culture medium (Ham's F-12K) containing 10% (v/v) FBS, 200 μg/mL Zeocin, 100 units/mL penicillin G and 100 μg/mL streptomycin (Life Technologies, Carlsbad, CA). For the assay, the cells were harvested and resuspended with culture medium without Zeocin before plating at 8000 cells per well in 20 μL in 384-well black clear bottom cell culture plates (VWR, Radnor, PA). After 24 hour culture at 37° C. and 5% CO2, the cells were loaded with 20 μL/well of calcium dye (FLIPR Calcium 6 Assay Kit, Molecular Devices, San Jose, CA) diluted in loading buffer (1× Hank's Balanced Salt Solution (HBSS), 5 mM probenecid, 20 mM 4-(2-hydroxyethyl)-1-piperazineethanesulfonic acid (HEPES), pH 7.4, VWR, Radnor, PA) followed with 45 min incubation at 37° C. and 40 min. at r.t. in the dark. Cells were then treated with the addition of 10 uL/well test compounds with a range of increasing concentrations diluted in the assay buffer (1×HBSS, 20 mM HEPES, pH 7.4, VWR, Radnor, PA) with FLIPR Penta (Molecular Devices. San Jose, CA) and incubated for 30 min. at r.t. Ca^2+ release was measured with FLIPR Penta with 10 s basal fluorescence measurement, then 12.5 μL of 5× agonist Cortistatin-14 (Tocris, Minneapolis, MN) at final concentration corresponding to the EC80 were added followed with continued fluorescence signal monitoring for an additional 110 s. The base line adjusted (median of first 10 s base line) max value of the Relative Fluorescence Unit (RFU) was plotted against compound concentrations. Wells with no compound were served as the positive controls, and wells with high concentration of reference antagonist were used as negative controls. IC50 curves were globally fitted with 3- or 4-parameter Hill equation in a Genedata Screener (Genedata Basel, Switzerland).

[3] = target: T1, MRGPRX2; test: MRGPRX2 β-Arrestin assay; design: host or cells: PathHunter CHO-K1; details: PathHunter CHO-K1 MRGPRX2 β-Arrestin cell line; agonist Cortistatin 14 0.25 μM
From the text: This assay measures compound inhibition of β-Arrestin recruitment, which is part of the G protein-independent pathway that results from the ligand-activated GPCR phosphorylation by specific GPCR kinases. The PathHunter CHO-K1 MRPGRX2 β-Arrestin Cell line stably expressing ProLink tagged MRGPRX2 and Enzyme Acceptor Tagged β-Arrestin was purchased from Eurofins DiscoverX, (Fremont, CA).
The cells were maintained in culture medium from the Europhins DiscoverX Cell Culture Kit-107 which includes FBS, hygromycin B and G418. For the assay, the cells were harvested and were resuspended with Cell Plating Reagent 2 (Eurofins DiscoverX). Cells were added 10000 cells in 25 μL/well to a 384-well black cell culture plate (Greiner VWR, Radnor, PA) which contained 125 nL/well of compound at a selected serially diluted concentration range or DMSO. The plate was incubated at 37° C. with 5% CO2 for 1 h. 2 μL/well of agonist Cortistatin 14 was diluted in Protein Dilution Buffer, (Eurofins DiscoverX) for a final concentration of 0.25 μM, was added and the plate was incubated at 37° C. with 5% CO2 for 90 min. 14 μL/well of Detection Reagent Mix (PathHunter Detection Kit, Eurofins DiscoverX) was added to the plates and further incubated for 1 h in the dark. Plates were read on the PHERAstar microplate reader (BMG Labtech Cary, NC) measuring luminescence 0.1 to 1 s per well. Data was normalized using DMSO only wells and wells with high concentration of reference antagonist as controls. Compound IC50 curves were globally fitted with 3- or 4-parameter Hill equation in a Genedata Screener (Genedata Basel, Switzerland).

Row | Structure (SMILES) | IC50 [1] | IC50 [2] | IC50 [3]
1 | Cn1cc2c(N[C@@H]3CCC[C@H](Nc4cc(C(F)(F)F)nc5ccc(Cl)cc45)C3)nccc2n1 [Example 1, (1S,3R)-N^1-(6-Chloro-2-(trifluoromethyl)quinolin-4-yl)-N^3-(2-methyl-2H-pyrazolo[4,3-c]pyridin-4-yl)cyclohexane-1,3-diamine] | 100 to 1000 nM | 0.1 to 100 nM | 0.1 to 100 nM
2 | Cn1ncc2ccnc(N[C@@H]3CCC[C@H](Nc4cc(C(F)(F)F)nc5ccc(Cl)cc45)C3)c21 [Example 2, (1S,3R)-N^1-(6-Chloro-2-(trifluoromethyl)quinolin-4-yl)-N^3-(1-methyl-1H-pyrazolo[3,4-c]pyridin-7-yl)cyclohexane-1,3-diamine] | 100 to 1000 nM | 0.1 to 100 nM | –
3 | FC(F)(F)c1cc(N[C@H]2CCC[C@@H](Nc3cc(N4CCOCC4)ccn3)C2)c2cc(Cl)ccc2n1 [Example 3, (1S,3R)-N^1-(6-Chloro-2-(trifluoromethyl)quinolin-4-yl)-N^3-(4-morpholinopyridin-2-yl)cyclohexane-1,3-diamine] | 100 to 1000 nM | 100 to 1000 nM | –
4 | FC(F)(F)c1cc(N[C@H]2CCC[C@@H](Nc3nccc4cnccc34)C2)c2cc(Cl)ccc2n1 [Example 6, (1S,3R)-N^1-(6-Chloro-2-(trifluoromethyl)quinolin-4-yl)-N^3-(2,6-naphthyridin-1-yl)cyclohexane-1,3-diamine] | 100 to 1000 nM | 0.1 to 100 nM | –
5 | FC(F)(F)c1cc(N[C@H]2CCC[C@@H](Nc3ccccn3)C2)c2cc(Cl)ccc2n1 [Example 12, (1S,3R)-N^1-(6-Chloro-2-(trifluoromethyl)quinolin-4-yl)-N^3-(pyridin-2-yl)cyclohexane-1,3-diamine] | 100 to 1000 nM | 0.1 to 100 nM | –
6 | FC(F)(F)c1cc(N[C@H]2CCC[C@@H](Nc3ccnc4ncccc34)C2)c2cc(Cl)ccc2n1 [Example 27, (1S,3R)-N^1-(6-Chloro-2-(trifluoromethyl)quinolin-4-yl)-N^3-(1,8-naphthyridin-4-yl)cyclohexane-1,3-diamine] | 100 to 1000 nM | 0.1 to 100 nM | –
7 | Cn1ncc2c(N[C@@H]3CCC[C@H](Nc4cc(C(F)(F)F)nc5ccc(Cl)cc45)C3)ncnc21 [Example 31] | 0.1 to 100 nM | 0.1 to 100 nM | –
8 | Cn1c(N[C@@H]2CCC[C@H](Nc3cc(C(F)(F)F)nc4ccc(Cl)cc34)C2)nc2cnccc21 [Example 32, (1S,3R)-N^1-(6-Chloro-2-(trifluoromethyl)quinolin-4-yl)-N^3-(1-methyl-1H-imidazo[4,5-c]pyridin-2-yl)cyclohexane-1,3-diamine] | 0.1 to 100 nM | 0.1 to 100 nM | –
9 | FC(F)(F)c1cc(N[C@H]2CCC[C@@H](Nc3nnc4n3CCC4)C2)c2cc(Cl)ccc2n1 [Example 34, (1S,3R)-N^1-(6-Chloro-2-(trifluoromethyl)quinolin-4-yl)-N^3-(6,7-dihydro-5H-pyrrolo[2,1-c][1,2,4]triazol-3-yl)cyclohexane-1,3-diamine] | 100 to 1000 nM | 0.1 to 100 nM | –

Now from value to molecule:

Row | IC50 [1] | IC50 [2] | IC50 [3] | Structure (SMILES)
10 | 0.1 to 100 nM | 0.1 to 100 nM | 0.1 to 100 nM | Cn1cnc2ccnc(N[C@@H]3CCC[C@H](Nc4cc(C(F)(F)F)nc5ccc(Cl)cc45)C3)c21 [Example 4, (1S,3R)-N^1-(6-Chloro-2-(trifluoromethyl)quinolin-4-yl)-N^3-(3-methyl-3H-imidazo[4,5-c]pyridin-4-yl)cyclohexane-1,3-diamine]
11 | 0.1 to 100 nM | 0.1 to 100 nM | 0.1 to 100 nM | FC(F)(F)c1cc(N[C@H]2CCC[C@@H](Nc3nccc4ncccc34)C2)c2cc(Cl)ccc2n1 [Example 5, (1S,3R)-N^1-(6-Chloro-2-(trifluoromethyl)quinolin-4-yl)-N^3-(1,6-naphthyridin-5-yl)cyclohexane-1,3-diamine]
12 | 0.1 to 100 nM | 0.1 to 100 nM | – | Cn1cnc2ccnc(N[C@H]3CC[C@@H](Nc4cc(C(F)(F)F)nc5ccc(Cl)cc45)CC3)c21 [Example 7, (1s,4s)-N^1-(6-Chloro-2-(trifluoromethyl)quinolin-4-yl)-N^4-(3-methyl-3H-imidazo[4,5-c]pyridin-4-yl)cyclohexane-1,4-diamine]
13 | 0.1 to 100 nM | 0.1 to 100 nM | – | Cn1cnc2ncnc(N[C@@H]3CCC[C@H](Nc4cc(C(F)(F)F)nc5ccc(Cl)cc45)C3)c21 [Example 8, (1S,3R)-N^1-(6-Chloro-2-(trifluoromethyl)quinolin-4-yl)-N^3-(7-methyl-7H-purin-6-yl)cyclohexane-1,3-diamine]
14 | 0.1 to 100 nM | – | 0.1 to 100 nM | FC(F)(F)c1cc(N[C@H]2CCC[C@@H](Nc3nccc4nccn34)C2)c2cc(Cl)ccc2n1 [Example 18, (1S,3R)-N^1-(6-Chloro-2-(trifluoromethyl)quinolin-4-yl)-N^3-(imidazo[1,2-c]pyrimidin-5-yl)cyclohexane-1,3-diamine]
15 | 0.1 to 100 nM | 0.1 to 100 nM | – | Fc1ccc2nc(C(F)(F)F)cc(N[C@H]3CCC[C@@H](Nc4nccn5cncc45)C3)c2c1 [Example 28, (1S,3R)-N^1-(6-fluoro-2-(trifluoromethyl)quinolin-4-yl)-N^3-(imidazo[1,5-a]pyrazin-8-yl)cyclohexane-1,3-diamine]
16 | 0.1 to 100 nM | 0.1 to 100 nM | – | FC(F)(F)c1cc(N[C@H]2CCC[C@@H](Nc3nccn4cncc34)C2)c2cc(Br)ccc2n1 [Example 29, (1S,3R)-N^1-(6-bromo-2-(trifluoromethyl)quinolin-4-yl)-N^3-(imidazo[1,5-a]pyrazin-8-yl)cyclohexane-1,3-diamine]
17 | 0.1 to 100 nM | 0.1 to 100 nM | – | FC(F)(F)c1cc(N[C@H]2CCC[C@@H](Nc3nccn4nccc34)C2)c2cc(Cl)ccc2n1 [Example 30, (1S,3R)-N^1-(6-Chloro-2-(trifluoromethyl)quinolin-4-yl)-N^3-(pyrazolo[1,5-a]pyrazin-4-yl)cyclohexane-1,3-diamine]
